Measurements reported in patent US10160771B2, “Hepatitis C virus inhibitors and uses thereof in preparation of drugs” (priority 2014, dated 2018).

Key:
[1] = test system: HCV genotype 1a (HCV-1a) replicon cells; test: HCV genotype 1a replicon luciferase assay (EC50); format: cell-based, hepatitis C virus genotype 1a (H77 clone); conditions: Hepatitis C virus, 72 h, 3 days, luciferase (Bright-Glo)
How it was run: (§1)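 Stable subgenomic replicon cells (1a: H77 with K1691R, K2040R, S2204I; 1b: Con1 with E1202G, T1280I, K1846T) carrying luciferase and neo were seeded at 8000 cells/well onto compounds (5-fold, 6-point, top 100, 10 or 1 nM; 0.5% DMSO) for 3 days at 37 °C. Bright-Glo luminescence gave EC50 by nonlinear fit.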

[2] = test system: HCV genotype 1b (HCV-1b) replicon cells; test: HCV genotype 1b replicon luciferase assay (EC50); format: cell-based, hepatitis C virus genotype 1b (Con1 clone); conditions: Hepatitis C virus, 72 h, 3 days, luciferase (Bright-Glo)
How it was run: as §1

[3] = Cell Titer-fluor cell activity assay in HCV-1b replicon cells (CC50); format: cell-based
How it was run: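 Con1 genotype 1b replicon cells (E1202G, T1280I, K1846T adaptive mutations), 8000 cells/well, exposed to 6-point 5-fold dilutions from 100, 10 or 1 nM top concentration in 0.5% DMSO, duplicate wells, 3 days at 37 °C. Viability read by Cell Titer-fluor (Ex 405/Em 515 nm) after 30 min; CC50 from nonlinear fit of inhibition %.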

Structure (SMILES)	EC50 [1] [nM]	EC50 [2] [nM]	CC50 at 3 days [3] [nM]
COC(=O)N[C@H](C(=O)N1CCC[C@H]1c1ncc(-c2ccc(-c3ccc(-c4cnc(C5C6CCC(C6)[C@@H]5C(=O)NCc5cncnc5)[nH]4)cc3)cc2)[nH]1)[C@@H](C)OC (stereo partly drawn) [AA_249_A]	0.101 to 1	0.001 to 0.1	> 1
COC(=O)N[C@H](C(=O)N1CCC[C@H]1c1ncc(-c2ccc(-c3ccc(-c4cnc([C@@H]5C6CCC(C6)[C@H]5C(=O)NCc5nccs5)[nH]4)cc3)cc2)[nH]1)C(C)C (stereo partly drawn) [AA_208_B]	1 to 10	0.001 to 0.1	> 1
COC(=O)N[C@H](C(=O)N1CCC[C@H]1c1[nH]c(-c2ccc(-c3ccc(-c4cnc([C@@H]5CCCCN5C(=O)[C@@H](NC(=O)OC)[C@@H](C)OC)[nH]4)cc3)cc2)c2c1CCCO2)C(C)C [AG_121]	10 to 100	0.001 to 0.1	> 1
CC[C@H](C)[C@H](NC(=O)OC)C(=O)N1CCC[C@H]1c1ncc(-c2ccc(-c3ccc(-c4ccc([C@@H]5CCCN5C(=O)[C@@H](NC(=O)OC)C(C)C)[nH]4)cc3)cc2)[nH]1 [AG_107]	1 to 10	0.001 to 0.1	> 1
COC(=O)N[C@H](C(=O)N1CCC[C@H]1c1ncc(-c2ccc(-c3ccc(-c4cnc(C5C6CCC(C6)[C@H]5C(=O)NCCO)[nH]4)cc3)cc2)[nH]1)[C@@H](C)OC (stereo partly drawn) [AA_220_A]	10 to 100	0.101 to 1	> 1
COC(=O)N[C@H](C(=O)N1CCC[C@H]1c1ncc(-c2ccc(-c3ccc(-c4cnc(C5C6CCC(C6)[C@@H]5C(=O)N(NC(=O)OC)C(C)C)[nH]4)cc3)cc2)[nH]1)C(C)C (stereo partly drawn) [AA_121_A]	10 to 100	1 to 10	> 10
COC(=O)N[C@H](C(=O)N1CCC[C@H]1c1ncc(-c2ccc(-c3ccc(-c4cnc(C5C6CCC(C6)[C@@H]5C(=O)NCc5cccnc5F)[nH]4)cc3)cc2)[nH]1)[C@@H](C)OC (stereo partly drawn) [AA_252_A]	1 to 10	0.101 to 1	> 1
COC(=O)N[C@H](C(=O)N1CCC[C@H]1c1ncc(-c2ccc(-c3ccc(-c4cnc([C@@H]5[C@H]6CC[C@H](C6)[C@H]5C(=O)N[C@H](CO)c5cccnc5)[nH]4)cc3)cc2)[nH]1)C(C)C [AA_243_ENDOA2_B]	0.101 to 1	0.001 to 0.1	> 1
COC(=O)N[C@H](C(=O)N1CCC[C@H]1c1ncc(-c2ccc(-c3ccc(-c4cnc([C@@H]5C6CCC(C6)[C@H]5C(=O)NCc5ccc(C(C)C)nc5)[nH]4)cc3)cc2)[nH]1)C(C)C (stereo partly drawn) [AA_236_B]	10 to 100	0.101 to 1	> 1
COC(=O)N[C@H](C(=O)N1CCC[C@H]1c1ncc(-c2ccc(-c3ccc(-c4cnc(C5C6CCC(C6)[C@@H]5C(=O)NCc5cccnc5SC)[nH]4)cc3)cc2)[nH]1)[C@@H](C)OC (stereo partly drawn) [AA_259_A]	10 to 100	0.001 to 0.1	> 1
COC(=O)N[C@H](C(=O)N1CCC[C@H]1c1ncc(-c2ccc(-c3ccc(-c4cnc([C@H]5C6CCC(C6)C5C(=O)NCc5cccnc5)[nH]4)cc3)nc2)[nH]1)[C@@H](C)OC (stereo partly drawn) [AA_242_A]	10 to 100	0.101 to 1	> 1
COC(=O)N[C@H](C(=O)N1CCC[C@H]1c1ncc(-c2ccc(-c3ccc(-c4cnc([C@@H]5C6CCC(C6)[C@H]5C(=O)NC(CO)c5ccccn5)[nH]4)cc3)cc2)[nH]1)C(C)C (stereo partly drawn) [AA_243_B]	0.101 to 1	0.001 to 0.1	> 1
COC(=O)N[C@H](C(=O)N1CC2(CCCC2)C[C@H]1c1ncc(-c2ccc(-c3ccc(-c4[nH]c([C@@H]5CCCN5C(=O)[C@@H](NC(=O)OC)[C@@H](C)OC)c5c4COC5)cc3)cc2)[nH]1)[C@@H](C)OC [AG_111]	0.101 to 1	0.001 to 0.1	> 1
COC(=O)N[C@H](C(=O)N1CCC[C@H]1c1ncc(-c2ccc(-c3ccc(-c4cnc([C@H]5C6CCC(C6)[C@@H]5C(=O)NCc5cccnc5C(C)C)[nH]4)cc3)cc2)[nH]1)C(C)C (stereo partly drawn) [AA_215_A]	10 to 100	0.001 to 0.1	> 1
